From the supplement of paper PMC10307832

Assays:
Test in all cases: relative viability (nuclei count vs DMSO), 5 days (fraction); higher = more cells survive
GW-2580 + Phenformin = compound: COC1=CC=C(C=C1)COC2=C(C=C(C=C2)CC3=CN=C(N=C3N)N)OC [GW-2580] + N=C(N)NC(=N)NCCc1ccccc1 [Phenformin] (partner 250 µM)
Outline: (§1)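 Values are medians from duplicate plates. Each reflects relative viability, defined as the nuclei count of treated wells over that of vehicle wells. Lung cancer cell lines in 1536-well plates were pin-tool dosed one day after seeding with one drug alone or with a fixed anchor-drug dose plus five library-drug doses (not always all listed) in √10 steps, then fixed, stained and imaged at 4× after 5 days.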

GW-2580 + Navitoclax = compound: COC1=CC=C(C=C1)COC2=C(C=C(C=C2)CC3=CN=C(N=C3N)N)OC [GW-2580] + CC1(C)CCC(c2ccc(Cl)cc2)=C(CN2CCN(c3ccc(C(=O)NS(=O)(=O)c4ccc(N[C@H](CCN5CCOCC5)CSc5ccccc5)c(S(=O)(=O)C(F)(F)F)c4)cc3)CC2)C1 [Navitoclax] (partner 0.5 µM)
Outline: as §1

Fedratinib + Phenformin = compound: Cc1cnc(Nc2ccc(OCCN3CCCC3)cc2)nc1Nc1cccc(S(=O)(=O)NC(C)(C)C)c1 [Fedratinib] + N=C(N)NC(=N)NCCc1ccccc1 [Phenformin] (partner 250 µM)
Outline: as §1

GW-2580 = compound: COC1=CC=C(C=C1)COC2=C(C=C(C=C2)CC3=CN=C(N=C3N)N)OC [GW-2580]
Outline: (§2)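 Vehicle-anchored 1536-well plates of lung cancer cell lines, held overnight at 37 °C, were pinned with five library-drug doses (not always all listed) spaced by √10. No medium change followed over the next 5 days, after which the cells were fixed, permeabilised and Hoechst-stained together and imaged at 4×. Nuclei were counted with MetaXpress, and viability is treated-well nuclei over vehicle-well nuclei, taken as a median across plates. Plates passed with control CV below 25% and at least one doubling.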

Fedratinib = compound: Cc1cnc(Nc2ccc(OCCN3CCCC3)cc2)nc1Nc1cccc(S(=O)(=O)NC(C)(C)C)c1 [Fedratinib]
Outline: as §2

Cell Line | relative viability (GW-2580 + Phenformin; first compound 0.08 µM) | relative viability (GW-2580 + Phenformin; first compound 0.8 µM) | relative viability (GW-2580 + Phenformin; first compound 2.53 µM) | relative viability (GW-2580 + Phenformin; first compound 8 µM) | relative viability (GW-2580 + Navitoclax; first compound 0.08 µM) | relative viability (GW-2580 + Navitoclax; first compound 0.8 µM) | relative viability (GW-2580 + Navitoclax; first compound 2.53 µM) | relative viability (GW-2580 + Navitoclax; first compound 8 µM) | relative viability (Fedratinib + Phenformin; first compound 0.1 µM) | relative viability (Fedratinib + Phenformin; first compound 0.3162 µM) | relative viability (Fedratinib + Phenformin; first compound 1 µM) | relative viability (GW-2580; 0.08 µM) | relative viability (GW-2580; 0.8 µM) | relative viability (GW-2580; 2.53 µM) | relative viability (GW-2580; 8 µM) | relative viability (Fedratinib; 0.1 µM) | relative viability (Fedratinib; 0.3162 µM) | relative viability (Fedratinib; 1 µM)
NCI-H2170 | 0.442 | 0.345 | 0.37 | 0.336 | 0.5 | 0.68 | 0.467 | 0.657 | 0.333 | 0.402 | 0.386 | 1.02 | 1.02 | 0.948 | 0.972 | 1.05 | 1.01 | 0.9
NCI-H2347 | 0.423 | 0.482 | 0.241 | 0.47 | 0.899 | 0.777 | 0.708 | 0.804 | 0.508 | 0.225 | 0.494 | 0.989 | 1.1 | 0.88 | 1.07 | 1.04 | 0.932 | 0.938
NCI-H1993 | 0.573 | 0.461 | 0.486 | 0.518 | 0.932 | 1.14 |  | 0.948 | 0.508 | 0.476 | 0.493 | 0.86 | 1.16 | 0.764 | 1.1 | 0.822 | 1.03 | 0.835
NCI-H322M | 0.787 | 0.819 | 0.866 | 0.782 | 1.07 | 1.31 | 1.11 | 1.22 | 0.722 | 0.774 | 0.436 | 0.941 | 1.1 | 0.971 | 0.946 | 0.873 | 1 | 0.678
NCI-H838 | 0.651 | 0.59 | 0.549 | 0.648 | 1.09 | 1.2 | 1.03 | 1.36 | 0.468 | 0.67 | 0.414 | 1.09 | 1.05 | 0.884 | 1 | 0.928 | 0.996 | 0.8
HARA | 0.461 | 0.524 | 0.328 | 0.304 | 1.15 | 1.18 | 1.28 | 0.896 | 0.364 | 0.448 | 0.411 | 1.11 | 1.16 | 0.951 | 0.902 | 0.863 | 0.903 | 0.803
NCI-H2087 | 0.526 | 0.473 | 0.352 | 0.444 | 0.956 | 1.16 | 0.886 | 0.88 | 0.45 | 0.477 | 0.379 | 1 | 1.08 | 0.942 | 0.933 | 1 | 0.99 | 0.856
NCI-H1437 | 0.339 | 0.31 | 0.332 | 0.357 | 1.16 | 1.15 | 0.928 | 0.879 | 0.318 | 0.346 | 0.349 | 1 | 1.06 | 0.926 | 0.835 | 0.978 | 0.982 | 0.926
NCI-H1792 | 0.4 | 0.226 | 0.146 | 0.313 | 0.534 | 0.816 | 0.26 | 0.668 |  | 0.77 | 0.338 | 0.939 | 1.18 | 0.92 | 0.842 | 0.835 | 0.989 | 0.815
ChaGo-K-1 | 0.594 | 0.476 | 0.454 | 0.514 | 1.04 | 1.34 | 0.926 | 1.01 | 0.436 | 0.432 | 0.445 | 0.938 | 0.985 | 1.01 | 0.999 | 0.953 | 0.948 | 0.958
COR-L23 | 0.458 | 0.53 | 0.478 | 0.463 | 1.32 | 1.17 | 1.14 | 1.11 | 0.438 | 0.412 | 0.442 | 1.15 | 1.12 | 1.03 | 0.932 | 0.958 | 1.04 | 1.03
COR-L 105 | 0.529 | 0.478 | 0.508 | 0.491 | 0.813 | 0.814 | 0.72 | 0.751 | 0.398 | 0.429 | 0.433 | 1.01 | 1.05 | 0.932 | 0.908 | 0.827 | 1.1 | 0.664
LK-2 | 0.37 | 0.544 | 0.318 | 0.391 | 0.983 | 1.09 | 0.616 | 1.03 | 0.293 | 0.452 | 0.201 | 1.18 | 0.988 | 0.742 | 1.02 | 1.09 | 1.03 | 0.734
201T | 0.466 | 0.418 | 0.461 | 0.433 | 1.24 | 1.25 | 1.23 | 1.2 | 0.429 | 0.478 | 0.414 | 0.974 | 1.13 | 1.06 | 0.959 | 0.963 | 1 | 0.918
HCC-44 | 0.181 | 0.153 | 0.183 | 0.253 | 1.09 | 1.03 | 0.97 | 0.897 | 0.123 | 0.293 | 0.163 | 0.981 | 1.03 | 0.896 | 1.01 | 0.963 | 0.982 | 0.882
NCI-H596 | 0.92 | 0.657 | 0.811 | 0.804 | 1.05 | 0.982 | 0.94 | 0.9 | 0.691 | 0.895 | 0.859 | 1.03 | 1.07 | 1.02 | 1.18 | 0.99 | 0.973 | 0.851
H3255 | 0.277 | 0.848 | 0.702 | 0.359 | 0.5 | 0.633 | 0.4 | 0.452 | 0.377 | 0.362 | 0.418 | 0.954 | 1.2 | 0.894 | 0.85 | 0.963 | 0.923 | 0.86
